Experimental data from PubChem BioAssay AID256 (DTP/NCI, 2004).
Values joined by “and” are separate entries in the source; they are usually repeats but may differ in a detail not shown here. Equal values may be shown once. Inconclusive results and toxic doses are left out. The calls were made as follows: active = survival T/C of 150% or more; inactive = T/C below 125% in these data.

System: CD2F1 mice, L1210 leukemia ip, survival T/C
Test: NCI In Vivo Anticancer Drug Screen. Data for tumor model L1210 Leukemia (intraperitoneal) in CD2F1 (CDF1) mice
Settings: higher = longer survival
Outline: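 Compound-dosed mice with transplantable tumor versus matched vehicle controls; endpoint ratio T/C reported.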

[1] = endpoint: mean survival time, dose: 6.25 mg/kg/injection, schedule: Q04DX003 (ip), vehicle: saline with Tween-80
[2] = endpoint: mean survival time, dose: 12.5 mg/kg/injection, schedule: Q04DX003 (ip), vehicle: saline with Tween-80
[3] = endpoint: mean survival time, dose: 25.0 mg/kg/injection, schedule: Q04DX003 (ip), vehicle: saline with Tween-80
[4] = endpoint: mean survival time, dose: 100.0 mg/kg/injection, schedule: Q04DX003 (ip), vehicle: saline with Tween-80
[5] = endpoint: mean survival time, dose: 200.0 mg/kg/injection, schedule: Q04DX003 (ip), vehicle: saline with Tween-80
[6] = endpoint: mean survival time, dose: 50.0 mg/kg/injection, schedule: Q01DX001 (ip), vehicle: saline
[7] = endpoint: mean survival time, dose: 200.0 mg/kg/injection, schedule: Q01DX001 (ip), vehicle: saline
[8] = endpoint: mean survival time, dose: 400.0 mg/kg/injection, schedule: Q01DX001 (ip), vehicle: saline
[9] = endpoint: mean survival time, dose: 5.0 mg/kg/injection, schedule: Q01DX009 (ip), vehicle: saline
[10] = endpoint: mean survival time, dose: 10.0 mg/kg/injection, schedule: Q01DX009 (ip), vehicle: saline
[11] = endpoint: mean survival time, dose: 50.0 mg/kg/injection, schedule: Q01DX009 (ip), vehicle: saline with Tween-80
[12] = endpoint: mean survival time, dose: 100.0 mg/kg/injection, schedule: Q01DX001 (ip), vehicle: saline
[13] = endpoint: mean survival time, dose: 200.0 mg/kg/injection, schedule: Q01DX009 (ip), vehicle: saline with Tween-80
[14] = endpoint: mean survival time, dose: 100.0 mg/kg/injection, schedule: Q01DX009 (ip), vehicle: saline with Tween-80

Measured: T/C

O=C(Cl)CCc1cc(Cl)no1
inactive: endpoint: mean survival time, dose: 25.0 mg/kg/injection, schedule: Q04DX003 (ip), vehicle: olive oil, sesame oil, peanut oil 96 % of control | endpoint: mean survival time, dose: 50.0 mg/kg/injection, schedule: Q04DX003 (ip), vehicle: olive oil, sesame oil, peanut oil 96 % of control | endpoint: mean survival time, dose: 100.0 mg/kg/injection, schedule: Q04DX003 (ip), vehicle: olive oil, sesame oil, peanut oil 103 % of control | endpoint: mean survival time, dose: 200.0 mg/kg/injection, schedule: Q04DX003 (ip), vehicle: olive oil, sesame oil, peanut oil 94 % of control | endpoint: mean survival time, dose: 400.0 mg/kg/injection, schedule: Q04DX003 (ip), vehicle: olive oil, sesame oil, peanut oil 103 % of control

Cc1ccc(CNC2=C(Cl)C(=O)c3ccccc3C2=O)cc1
inactive: [1] 95 % of control | [2] 98 % of control | [3] 94 % of control and 97 % of control

O=C1CSC(=O)N1
inactive: [4] 94 % of control | [5] 93 % of control | endpoint: mean survival time, dose: 400.0 mg/kg/injection, schedule: Q04DX003 (ip), vehicle: saline with Tween-80 92 % of control

CCCCCCCC1C(=O)OC2CC3C(C)=CC(=O)C(O)C3(C)C3C4(O)OCC23C1C(C)C4O (centres undefined)
inactive: endpoint: median survival time, dose: 2.5 mg/kg/injection, schedule: Q01DX005 (ip), vehicle: Klucel (hydroxypropylcellulose) (HPC) 109 % of control | endpoint: median survival time, dose: 5.0 mg/kg/injection, schedule: Q01DX005 (ip), vehicle: Klucel (hydroxypropylcellulose) (HPC) 106 % of control | endpoint: median survival time, dose: 10.0 mg/kg/injection, schedule: Q01DX005 (ip), vehicle: Klucel (hydroxypropylcellulose) (HPC) 102 % of control | endpoint: median survival time, dose: 20.0 mg/kg/injection, schedule: Q01DX005 (ip), vehicle: Klucel (hydroxypropylcellulose) (HPC) 108 % of control

O=C1C=CC(=O)O1 (tested in a mixture with another compound)
inactive: endpoint: mean survival time, dose: 1.56 mg/kg/injection, schedule: Q01DX001 (ip), vehicle: other 109 % of control | endpoint: mean survival time, dose: 1.56 mg/kg/injection, schedule: Q04DX003 (ip), vehicle: other 95 % of control | endpoint: mean survival time, dose: 3.12 mg/kg/injection, schedule: Q01DX001 (ip), vehicle: other 105 % of control | endpoint: mean survival time, dose: 3.12 mg/kg/injection, schedule: Q04DX003 (ip), vehicle: other 97 % of control | endpoint: mean survival time, dose: 6.25 mg/kg/injection, schedule: Q04DX003 (ip), vehicle: other 97 % of control | [6] 115 % of control | [7] 117 % of control | [8] 117 % of control | endpoint: mean survival time, dose: 1000.0 mg/kg/injection, schedule: Q01DX001 (ip), vehicle: saline 121 % of control

COc1ccc(CCN2C(=O)C=CC2=O)cc1OC
inactive: endpoint: mean survival time, dose: 5.0 mg/kg/injection, schedule: Q01DX001 (ip), vehicle: saline 94 % of control | [9] 94 % of control | endpoint: mean survival time, dose: 10.0 mg/kg/injection, schedule: Q01DX001 (ip), vehicle: saline 94 % of control | [10] 97 % of control | endpoint: mean survival time, dose: 20.0 mg/kg/injection, schedule: Q01DX001 (ip), vehicle: saline 91 % of control

CCCCCCCCCCNC(=O)C[n+]1cccc(C(=O)NCc2ccccc2)c1
inactive: endpoint: mean survival time, dose: 12.5 mg/kg/injection, schedule: Q01DX009 (ip), vehicle: saline sonified 90 % of control | endpoint: mean survival time, dose: 12.5 mg/kg/injection, schedule: Q04DX003 (ip), vehicle: saline sonified 104 % of control | endpoint: mean survival time, dose: 25.0 mg/kg/injection, schedule: Q04DX003 (ip), vehicle: saline sonified 104 % of control | endpoint: mean survival time, dose: 50.0 mg/kg/injection, schedule: Q04DX003 (ip), vehicle: saline sonified 101 % of control

N=C(N)SCc1ccccc1
inactive: [1] 114 % of control | endpoint: mean survival time, dose: 12.5 mg/kg/injection, schedule: Q01DX009 (ip), vehicle: saline with Tween-80 94 % of control | [2] 100 % of control | endpoint: mean survival time, dose: 25.0 mg/kg/injection, schedule: Q01DX001 (ip), vehicle: saline 93 % of control | endpoint: mean survival time, dose: 25.0 mg/kg/injection, schedule: Q01DX009 (ip), vehicle: saline with Tween-80 96 % of control | [3] 112 % of control | [6] 100 % of control | [11] 93 % of control and 97 % of control | endpoint: mean survival time, dose: 50.0 mg/kg/injection, schedule: Q04DX003 (ip), vehicle: saline with Tween-80 94 % of control and 97 % of control | [12] 96 % of control | [4] 100 % of control | [13] 86 % of control | [5] 95 % of control

C/C=C\c1ccc(OCCOC(=O)Nc2ccc(C)cc2C)c(OC)c1
inactive: [11] 104 % of control | [14] 96 % of control | [13] 93 % of control

CCC1=C[C@H]2CN(CCc3c([nH]c4ccccc34)[C@@](C(=O)OC)(c3cc4c(cc3OC)N(C)[C@H]3[C@@](O)(C(=O)OC)[C@H](OC(C)=O)[C@]5(CC)C=CCN6CC[C@]43[C@@H]65)C2)C1
active: endpoint: mean survival time, dose: 2.0 mg/kg/injection, schedule: Q01DX009 (ip), vehicle: water 161 % of control
inactive: endpoint: mean survival time, dose: 0.25 mg/kg/injection, schedule: Q01DX009 (ip), vehicle: water 102 % of control | endpoint: mean survival time, dose: 4.0 mg/kg/injection, schedule: Q01DX009 (ip), vehicle: water 91 % of control | endpoint: median survival time, dose: 0.5 mg/kg/injection, schedule: Q01DX009 (ip), vehicle: water 115 % of control

COC(=O)CCC1CCCC(CCC(=O)OC)C1=O (centres undefined)
inactive: endpoint: mean survival time, dose: 100.0 mg/kg/injection, schedule: Q04DX003 (ip), vehicle: Klucel (hydroxypropylcellulose) (HPC) 87 % of control | endpoint: mean survival time, dose: 200.0 mg/kg/injection, schedule: Q04DX003 (ip), vehicle: Klucel (hydroxypropylcellulose) (HPC) 94 % of control | endpoint: mean survival time, dose: 400.0 mg/kg/injection, schedule: Q04DX003 (ip), vehicle: Klucel (hydroxypropylcellulose) (HPC) 92 % of control

O=C(CCN1CCCCC1)c1ccccc1
inactive: [9] 115 % of control | [10] 114 % of control | endpoint: mean survival time, dose: 20.0 mg/kg/injection, schedule: Q01DX009 (ip), vehicle: saline 102 % of control

NC(=S)N/N=C/c1ncccc1O
inactive: endpoint: mean survival time, dose: 3.13 mg/kg/injection, schedule: Q03HX024 (ip), vehicle: saline 117 % of control | endpoint: mean survival time, dose: 50.0 mg/kg/injection, schedule: Q03HX024 (ip), vehicle: saline 102 % of control | endpoint: median survival time, dose: 45.0 mg/kg/injection, schedule: Q04DX003 (ip), vehicle: suspension in saline 121 % of control | endpoint: median survival time, dose: 72.4 mg/kg/injection, schedule: Q03HX008 (ip), vehicle: suspension in saline 109 % of control | endpoint: median survival time, dose: 90.0 mg/kg/injection, schedule: Q04DX003 (ip), vehicle: suspension in saline 122 % of control | endpoint: median survival time, dose: 180.0 mg/kg/injection, schedule: Q03HX024 (ip), vehicle: saline 86 % of control | endpoint: median survival time, dose: 200.0 mg/kg/injection, schedule: Q01DX005 (ip), vehicle: suspension in saline 117 % of control | endpoint: median survival time, dose: 537.0 mg/kg/injection, schedule: Q04DX003 (ip), vehicle: suspension in saline 109 % of control | endpoint: median survival time, dose: 720.0 mg/kg/injection, schedule: Q04DX003 (ip), vehicle: suspension in saline 119 % of control
active: endpoint: median survival time, dose: 21.8 mg/kg/injection, schedule: Q03HX008 (ip), vehicle: suspension in saline 156 % of control | endpoint: median survival time, dose: 32.5 mg/kg/injection, schedule: Q03HX008 (ip), vehicle: suspension in saline 164 % of control | endpoint: median survival time, dose: 48.5 mg/kg/injection, schedule: Q03HX008 (ip), vehicle: suspension in saline 174 % of control | endpoint: median survival time, dose: 50.0 mg/kg/injection, schedule: Q01DX005 (ip), vehicle: saline 156 % of control | endpoint: median survival time, dose: 100.0 mg/kg/injection, schedule: Q01DX005 (ip), vehicle: suspension in saline 150 % of control | endpoint: median survival time, dose: 108.0 mg/kg/injection, schedule: Q04DX003 (ip), vehicle: suspension in saline 152 % of control | endpoint: median survival time, dose: 241.0 mg/kg/injection, schedule: Q04DX003 (ip), vehicle: suspension in saline 151 % of control | endpoint: median survival time, dose: 360.0 mg/kg/injection, schedule: Q04DX003 (ip), vehicle: suspension in saline 161 % of control

O=COC1CC2CC1C1CCCC21 (centres undefined)
inactive: [11] 95 % of control | [14] 93 % of control | [13] 97 % of control

CC1CCC2(C)CCC3(C)C4=CCC5C(C)(C)C(O)CCC5(C)C4CCC3(C)C2C1C (centres undefined)
inactive: endpoint: mean survival time, dose: 200.0 mg/kg/injection, schedule: Q04DX003 (ip), vehicle: saline 89 % of control | endpoint: mean survival time, dose: 400.0 mg/kg/injection, schedule: Q04DX003 (ip), vehicle: saline 96 % of control

CCN1C(=O)CC(O)C1=O (centres undefined)
inactive: [12] 105 % of control | [7] 103 % of control | [8] 103 % of control
